Like-named read-outs stand apart in the source and are kept apart here.
What was measured:
Cryptosporidium parvum = assay: qRT-PCR assay of the growth of C. parvum in vitro in HCT-8 host cells (primary and secondary screening, EC50); format: cell-based; settings: for Inhibition (%): primary screening at 10 uM; for % Inhibition (3.3 uM): secondary screening at 3.3 uM
[1] = primary screening at 10 uM, treated vs control
[2] = primary screening at 10 uM, from Hs18S ΔCT

| Compound | Hs18S ΔCT (HCT-8 host cells (Hs18S); [1]) | Inhibition (%) (Cryptosporidium parvum) | Cytotoxicity (%) (HCT-8 host cells (Hs18S); [2]) | further results |
| --- | --- | --- | --- | --- |
| CC1CCC23CCC4(C)C5(C)CCC6C(C)(C)C(=O)CCC6(C)C5CCC4(OC2=O)C3C1C (stereo not shown) [3-OXOURSAN (28-13)OLIDE] | 6.62 | – | – | cytotoxicity at 10 µM (in vitro): 99% |
| CC(=O)O[C@H]1C[C@H](O[C@H]2[C@@H](O)C[C@H](O[C@H]3[C@@H](O)C[C@H](O[C@H]4CC[C@@]5(C)[C@H](CC[C@@H]6[C@@H]5C[C@@H](O)[C@]5(C)[C@@H](C7=CC(=O)OC7)CC[C@]65O)C4)O[C@@H]3C)O[C@@H]2C)O[C@H](C)[C@H]1O[C@@H]1O[C@H](CO)[C@@H](O)[C@H](O)[C@H]1O [LANATOSIDE C] | 8.93 | – | – | cytotoxicity at 10 µM (in vitro): 99.8% |
| C[C@@H]1O[C@@H](O[C@H]2CC[C@]3(C=O)[C@H]4CC[C@]5(C)[C@@H](C6=CC(=O)OC6)CC[C@]5(O)[C@@H]4CC[C@]3(O)C2)[C@H](O)[C@H](O)[C@H]1O [CONVALLATOXIN] | 10.84 | – | – | cytotoxicity at 10 µM (in vitro): 99.9% |
| NCCCC(=O)O [gamma-AMINOBUTYRIC ACID] | – | – | – | Hs18S ΔCT (HCT-8 host cells (Hs18S); human, 41 h, 10 μM): 0.04; cytotoxicity at 41 h, 10 µM (in vitro; human): 2.6% |
| CC(C)=CCC[C@]1(C)C=Cc2c(O)c3c(c(CC=C(C)C)c2O1)O[C@]12C(=C[C@@H]4C[C@H]1C(C)(C)O[C@@]2(C/C=C(/C)C(=O)O)C4=O)C3=O [GAMBOGIC ACID] | – | – | – | Hs18S ΔCT (HCT-8 host cells (Hs18S); human, 41 h, 10 μM): 10.02; cytotoxicity at 41 h, 10 µM (in vitro; human): 99.9% |
| CC1=C(O)C(=O)C=C2C1=CC=C1[C@@]2(C)CC[C@@]2(C)[C@@H]3C[C@](C)(C(=O)O)CC[C@]3(C)CC[C@]12C [CELASTROL] | 3.82 | – | – | cytotoxicity at 10 µM (in vitro): 92.9% |
| COc1cc([C@@H]2c3cc4c(cc3[C@H](O)[C@H]3COC(=O)[C@H]23)OCO4)cc(OC)c1OC [PODOFILOX] | 5.42 | – | – | cytotoxicity at 41 h, 10 µM (in vitro): 97.7% |
| C[C@@]12C(=O)OC(=O)[C@]1(C)[C@H]1CC[C@@H]2O1 [CANTHARIDIN] | 7.39 | – | – | cytotoxicity at 10 µM (in vitro): 99.4% |
| CC(=O)O[C@@H]1C[C@@]2(C)[C@H](c3ccoc3)C[C@H]3O[C@]32[C@]2(C)C(=O)C(O)=C3C(C)(C)C(=O)C=C[C@]3(C)[C@@H]12 [ANTHOTHECOL] | – | – | – | Hs18S ΔCT (HCT-8 host cells (Hs18S); human, 41 h, 10 μM): 6.51; cytotoxicity at 41 h, 10 µM (in vitro; human): 98.9% |
| CC(C)=CCc1c2c(c3occ(-c4ccc(O)c(O)c4)c(=O)c3c1O)C=CC(C)(C)O2 [POMIFERIN] | – | – | – | Hs18S ΔCT (HCT-8 host cells (Hs18S); human, 41 h, 10 μM): 6.42; cytotoxicity at 41 h, 10 µM (in vitro; human): 98.8% |
| C[C@@H]1O[C@@H](O[C@@H]2C=C3CC[C@@H]4[C@H](CC[C@]5(C)[C@@H](c6ccc(=O)oc6)CC[C@]45O)[C@@]3(C)CC2)[C@H](O)[C@H](O)[C@H]1O [PROSCILLARIDIN] | 13.28 | – | – | cytotoxicity at 10 µM (in vitro): 100% |
| C[C@H]1O[C@@H](O[C@H]2[C@@H](O)C[C@H](O[C@H]3[C@@H](O)C[C@H](O[C@H]4CC[C@@]5(C)[C@H](CC[C@@H]6[C@@H]5CC[C@]5(C)[C@@H](C7=CC(=O)OC7)CC[C@]65O)C4)O[C@@H]3C)O[C@@H]2C)C[C@H](O)[C@@H]1O [DIGITOXIN] | 13.47 | – | – | cytotoxicity at 10 µM (in vitro): 100% |
| CC(=O)O[C@H]1CC[C@@]2(C)[C@H](CC[C@@H]3[C@@H]2CC[C@]2(C)[C@@H](C4=CC(=O)OC4)[C@@H](OC(C)=O)C[C@]32O)C1 [GITOXIGENIN DIACETATE] | 8.90 | – | – | cytotoxicity at 10 µM (in vitro): 99.8% |
| VERATRINE SULFATE | – | 25.98 | – | Hs18S ΔCT (HCT-8 host cells (Hs18S)): -0.06; Cytotoxicity (%) (HCT-8 host cells (Hs18S); 10 µM): -4.3 |
| C=CCSC[C@H](N)C(=O)O [L-DEOXYALLIIN] | -0.29 | 38.80 | -21.9 | – |
| COC(=O)[C@H]1[C@H]2C[C@H]3c4[nH]c5ccccc5c4CCN3C[C@@H]2CC[C@@H]1O [CORYNANTHINE] | -0.61 | -58.95 | -53.1 | – |
| CC(=O)O[C@H]1CC[C@]2(C)C3=C(CC[C@H]2C1(C)C)[C@]1(C)CC[C@H]([C@H](C)CCC=C(C)C)[C@@]1(C)CC3 [LANOSTEROL ACETATE] | -0.04 | -3.78 | -2.8 | – |

| Compound | Hs18S ΔCT (HCT-8 host cells (Hs18S); [1]) | Inhibition (%) (Cryptosporidium parvum) | Cytotoxicity (%) (HCT-8 host cells (Hs18S); [2]) | further results |
| --- | --- | --- | --- | --- |
| CC(=O)O[C@H]1C[C@@H](OC(C)=O)C(C)(C)C2CC(=O)[C@]3(C)C(CC[C@@]4(C)[C@H](c5ccoc5)OC(=O)[C@H]5O[C@]543)[C@]21C (stereo partly shown) [7-DEACETOXY-7-OXOKHIVORIN] | 0.21 | 40.16 | 13.5 | – |
| COC(=O)/C(C)=C\C[C@@]12OC(C)(C)[C@@H]3C[C@@H](C=C4C(=O)c5c(OC)c6c(c(CC=C(C)C)c5O[C@]431)O[C@](C)(CCC=C(C)C)C=C6)C2=O [METHYL GAMBOGATE METHYL ETHER] | 0.37 | 23.61 | 22.4 | – |
| C=C(C)CCCC(C)CCOC(C)=O (stereo not shown) [RHODINYL ACETATE] | 0.17 | -15.58 | 10.9 | – |
| CASANTHRANOL [CASANTHRANOL [cascaroside A shown]] | – | 50.17 | – | Cytotoxicity (%) (HCT-8 host cells (Hs18S); 10 µM): 15.4% |
| BLEOMYCIN (bleomycin B2 shown) | -0.22 | 52.96 | -16.8 | – |
| GARLICIN | – | 4.93 | – | Cytotoxicity (%) (HCT-8 host cells (Hs18S); 10 µM): -30.8% |
| CC1=C(/C=C/C(C)=C/C=C/C(C)=C/C=C/C=C(C)/C=C/C=C(C)/C=C/C2=C(C)C(=O)CCC2(C)C)C(C)(C)CCC1=O [CANTHAXANTHIN, CANTHAXANTHIN (euglenanone)] | – | 52.72 | – | Cytotoxicity (%) (HCT-8 host cells (Hs18S); 10 µM): -19.8% |
| COC(=O)/C(C)=C\CC12OC(C)(C)C3CC(C=C4C(=O)c5c(c(CCC(C)(C)Cl)c6c(c5OC)C5CC(C)(CCC5=C(C)C)O6)OC431)C2=O (stereo not shown) [DIMETHYL GAMBOGINATE] | 2.30 | 93.45 | 79.7 | % Inhibition (3.3 uM) (Cryptosporidium parvum): 47% |
| CC(C)CCC[C@@H](C)[C@H]1CC[C@H]2C3=CC[C@H]4C[C@@H](O)CC[C@]4(C)[C@H]3CC[C@]12C [LATHOSTEROL] | 0.35 | -50.10 | 21.4 | – |
| COLISTIN SULFATE | 0.01 | 33.43 | 0.4 | – |
| STROPH[…] LACTONE ACETATE | 2.37 | 96.28 | 80.7 | % Inhibition (3.3 uM) (Cryptosporidium parvum): 19% |
| CC1(C)[C@@H](O[C@H]2O[C@H](C(=O)O)[C@@H](O)[C@H](O)[C@H]2O[C@@H]2O[C@H](C(=O)O)[C@@H](O)[C@H](O)[C@H]2O)CC[C@]2(C)[C@H]3C(=O)C=C4[C@@H]5C[C@@](C)(C(=O)O)CC[C@]5(C)CC[C@@]4(C)[C@]3(C)CC[C@@H]12.N [GLYCYRRHIZIC ACID, AMMONIUM SALT] | -0.52 | 1.41 | -43.6 | – |
| NC(=O)CC[C@H](N)C(=O)O [GLUTAMINE (D)] | -0.16 | 2.46 | -11.8 | – |
| BACITRACIN | 0.02 | -21.81 | 1.4 | – |
| CC(=O)O[C@H]1CC[C@@]2(C)C(=CC[C@H]3[C@@H]4CC[C@H]([C@H](C)CCCC(C)C)[C@@]4(C)CC[C@@H]32)C1 [CHOLESTERYL ACETATE] | -0.08 | -22.86 | -5.8 | – |
| CC(=O)Oc1ccc2c(C)cc(=O)oc2c1 [ACETYL HYMETOCHROME] | -0.06 | -35.81 | -4.5 | – |
